ChEMBL document CHEMBL1136386, “Solid-phase synthesis of endothelin receptor antagonists” (Bioorg Med Chem Lett, 2003)

What was measured:
Endothelin-1 receptor = molecular target: T1, Endothelin-1 receptor (Homo sapiens, UniProt P25101); experiment: Antagonist activity against human ETA receptor using CHO cells; format: functional, cell-based
T1 sequence (P25101 whole entry): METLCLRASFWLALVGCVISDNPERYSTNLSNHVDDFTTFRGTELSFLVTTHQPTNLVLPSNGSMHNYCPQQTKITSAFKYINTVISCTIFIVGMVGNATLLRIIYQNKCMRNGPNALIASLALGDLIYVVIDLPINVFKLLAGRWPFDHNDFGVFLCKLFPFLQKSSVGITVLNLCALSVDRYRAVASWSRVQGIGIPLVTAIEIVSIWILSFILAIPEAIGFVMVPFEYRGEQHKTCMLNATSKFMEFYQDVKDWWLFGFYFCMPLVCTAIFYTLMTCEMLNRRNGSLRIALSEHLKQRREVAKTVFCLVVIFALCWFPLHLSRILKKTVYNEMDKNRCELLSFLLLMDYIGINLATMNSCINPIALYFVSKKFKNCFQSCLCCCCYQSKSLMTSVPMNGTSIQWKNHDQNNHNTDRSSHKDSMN

[1] = molecular target: T2, Endothelin receptor type B (Homo sapiens, UniProt P24530); experiment: Antagonist activity against human Endothelin B receptor expressed in CHO cells; format: functional, cell-based
T2 sequence (P24530 whole entry): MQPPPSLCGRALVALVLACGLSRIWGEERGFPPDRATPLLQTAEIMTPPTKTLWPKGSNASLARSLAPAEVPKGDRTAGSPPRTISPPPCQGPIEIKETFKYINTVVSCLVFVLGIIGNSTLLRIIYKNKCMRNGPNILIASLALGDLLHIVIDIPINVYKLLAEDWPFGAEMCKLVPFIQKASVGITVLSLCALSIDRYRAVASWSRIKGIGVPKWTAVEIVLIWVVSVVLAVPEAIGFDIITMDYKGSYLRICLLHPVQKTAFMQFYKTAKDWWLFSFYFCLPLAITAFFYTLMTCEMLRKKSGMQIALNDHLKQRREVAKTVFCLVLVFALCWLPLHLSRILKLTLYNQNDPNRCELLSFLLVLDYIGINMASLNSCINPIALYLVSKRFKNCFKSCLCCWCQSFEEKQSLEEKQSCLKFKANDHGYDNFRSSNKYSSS

CCOc1ccc(-c2cc(C)nc(OC(C(=O)O)C(C)(c3ccccc3)c3ccccc3)n2)cc1 (configuration not stated)
Ki (Endothelin-1 receptor): 0.002 µM | Ki [1]: 0.344 µM
